Measured values from patent US8389523B2, “Substituted quinoxaline and an agrochemical composition thereof” (Kumiai Chemical Industry Co., Ltd., priority 2007, dated 2013).

Tests used:
Format in all cases: in vivo
Design in all cases: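 grade 0 to 5 of growth suppression where 5 is 90% or more and 0 below 10%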
[1] = tested on: Abutilon theophrasti medicus; experiment: Herbicidal effects in upland field soil treatment (Test Example 2); conditions: 1000 g active ingredient per hectare, 21st day after treatment, criteria of Table 138
Method in brief: (§1)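 Pre-emergence test: seeds sown in upland soil, then soil surface sprayed with diluted wettable powder at 1000 g active ingredient per hectare (1000 liters per hectare). Greenhouse growth; herbicidal effect scored on day 21 against set criteria.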

[2] = tested on: Amaranthus viridis L.; experiment: as above; conditions: 1000 g active ingredient per hectare, 21st day after treatment, criteria of Table 138
Method in brief: as §1

[3] = tested on: Abutilon theophrasti medicus; experiment: Herbicidal effects in upland field foliar treatment (Test Example 3); conditions: 1000 g of the active ingredient per hectare, 14th day after the treatment, wettable powder, criteria of Table 138
Method in brief: (§2)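 Plants grown two weeks from seed in upland soil in a greenhouse, then sprayed overall with water-diluted wettable powder at 1000 L/ha delivering 1000 g active ingredient/ha. Herbicidal effect scored by rating criteria 14 days after treatment.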

[4] = tested on: Echinochloa crus-galli (L.) P. Beauv. var. crus-galli; experiment: as above; conditions: 1000 g of the active ingredient per hectare, 14th day after the treatment, wettable powder, criteria of Table 138
Method in brief: as §2

[5] = tested on: Amaranthus viridis L.; experiment: as above; conditions: 1000 g of the active ingredient per hectare, 14th day after the treatment, wettable powder, criteria of Table 138
Method in brief: as §2

[6] = tested on: Scirpus juncoides Roxb. var. ohwianus. T. Koyama; experiment: Herbicidal effects in paddy field soil treatment (Test Example 1); conditions: paddy field soil treatment; 1000 g of the active ingredient per hectare; wettable powder added dropwise on water surface; 21st day after treatment
Method in brief: (§3)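 Seeds sown in puddled paddy soil, waterlogged to 3 cm depth; next day a diluted wettable powder applied dropwise to the water surface at 1000 g active ingredient per hectare. Herbicidal effect scored 21 days after treatment in a greenhouse.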

[7] = tested on: Monochoria vaginalis (Burm. f.) Presl var. plantaginea (Roxb.) Solms-Laub.; experiment: as above; conditions: paddy field soil treatment; 1000 g of the active ingredient per hectare; wettable powder added dropwise on water surface; 21st day after treatment
Method in brief: as §3

[8] = tested on: Echinochloa oryzicola Vasing; experiment: as above; conditions: paddy field soil treatment; 1000 g of the active ingredient per hectare; wettable powder added dropwise on water surface; 21st day after treatment
Method in brief: as §3

| SMILES | herbicidal effect (index) on Abutilon theophrasti medicus [1] | herbicidal effect (index) on Amaranthus viridis L. [2] | herbicidal effects on Abutilon theophrasti medicus [3] | herbicidal effects on Echinochloa crus-galli (L.) P. Beauv. var. crus-galli [4] | herbicidal effects on Amaranthus viridis L. [5] | Herbicidal effects index, Scirpus juncoides Roxb. var. ohwianus. T. Koyama [6] | Herbicidal effects index, Monochoria vaginalis (Burm. f.) Presl var. plantaginea (Roxb.) Solms-Laub. [7] | Herbicidal effects index, Echinochloa oryzicola Vasing [8] |
| --- | --- | --- | --- | --- | --- | --- | --- | --- |
| COc1cc(-n2c(=O)c(C(=O)C3=C(O)CCCC3=O)nc3cc(F)ccc32)cc(OC)c1OC [II-238] | 5 | 5 | 5 | 5 | 5 | 5 | 5 | 5 |
| O=C1CCCC(O)=C1C(=O)c1nc2cc(F)ccc2n(-c2ccc3c(c2)OCO3)c1=O [II-239] | 5 | 5 | 5 | 4 | 5 | 5 | 5 | 5 |
| O=C1CCCC(O)=C1C(=O)c1nc2ccc(F)cc2n(-c2ccccc2)c1=O [II-241] | 5 | 5 | 5 | 5 | 5 | 5 | 5 | 5 |
| O=C1CCCC(O)=C1C(=O)c1nc2ccc(F)cc2n(-c2ccc3c(c2)OCCO3)c1=O [II-242] | 4 | 5 | 4 | 5 | 5 | 5 | 5 | 5 |
| O=C1CCCC(O)=C1C(=O)c1nc2cccc(F)c2n(-c2ccccc2)c1=O [II-243] | 5 | 5 | 5 | 5 | 5 | 5 | 5 | 5 |
| Cc1cccc2c1nc(C(=O)C1=C(O)CCCC1=O)c(=O)n2-c1ccccc1 [II-244] | 5 | 5 | 5 | 5 | 5 | 5 | 5 | 5 |
| O=C1CCCC(O)=C1C(=O)c1nc2cc(C(F)(F)F)ccc2n(-c2ccccc2)c1=O [II-249] | 5 | 5 | 5 | 5 | 5 | 5 | 5 | 5 |
| COc1ccc2nc(C(=O)C3=C(O)CCCC3=O)c(=O)n(-c3ccccc3)c2c1 [II-252] | 5 | 5 | 5 | 5 | 5 | 5 | 5 | 5 |
